Laboratory results: patent US20230255972A1, “PYRIMIDINE COMPOUND-CONTAINING COMBINATION TO BE USED IN TUMOR TREATMENT” (TAIHO PHARMACEUTICAL CO., LTD., priority 2020, published 2023)
Read-outs that look alike come from different tables or passages of the source.

What was measured:
NCI-N87-Luc = assay: Antitumor effect (in vivo) on direct brain transplantation models of NCI-N87-luc; set-up: species or system nude mouse; conditions: 25 mg/kg/day po once a day, Days 1-21
From the text: Test Example 11 Antitumor Effect Confirmation Test (In Vivo) on Direct Brain Transplantation Models, into which Luciferase Gene-Introduced HER2 Expressing Cell Line (NCI-N87-luc) is Directly Transplanted
In order to confirm the antitumor effects of a test compound on direct brain transplantation models, NCI-N87-Luc, which was obtained by introducing a Luciferase gene into NCI-N87 that was a human stomach cancer tumor cell line purchased from American Type Culture Collection, was used.
The NCI-N87-Luc cells were re-suspended in PBS in a concentration of 6.25×10^7 cells/mL.
A microdrill was used to drill a hole in the skull, and then, using a needle, a manipulator, and a syringe pump, 4 μL of the cell suspension was transplanted into the brain at a rate of 0.8 μL/min.
As a reference of the amount of brain tumor, approximately 3 weeks after the transplantation, Total Flux (Photon/sec) was measured in all of the survival cases, using IVIS (PerkinElmer, Inc., model: Lumina II). Based on the obtained results, 6 animals were assigned to each group, using the grouping program of MiSTAT (Ver. 2.00).
The test compound was orally administered to the mice once a day, every day, for 21 days from the following day of the grouping (Days 1-21). […]
The value obtained by logarithmic transformation (Log 10) of the total flux on Day 22 in each group was analyzed by a Dunnett's test or a Student-t test. […]

[1] = tested on: Human stomach cancer-derived tumor cells 4-1ST; conditions: for BWC (%, Mean ± SE) / T/C (%) / TV (mm^3, mean ± SE): Day 15; for BWC (%, Mean ± SE) / T/C (%) / TV (mm^3, mean ± SE) / Number of Deaths: Days 1-14, po
Protocol: Human stomach cancer-derived tumor cells 4-1ST were obtained as fragment tumor from the Central Institute for Experimental Animals. Tumor was removed approximately 1 month after subcutaneous transplantation and passage in a 6 week old male nude mouse (BALB/cAJc1-nu/nu, CLEA Japan, Inc.), and a fragment of approximately 2 mm square was prepared. A transplantation needle was filled with one fragment and subcutaneously inserted from around the right last rib of each nude mouse so as to enter the right back. The tumor was pushed out by pressing the inner syringe and thereby transplanted. For the measurement of the tumor size, electronic calipers were used. […] A tumor volume (TV) was calculated from this major axis and minor axis. A relative tumor volume change percentage (T/C) was calculated from the calculated tumor volume. TV and T/C were calculated according to the following equations:
Tumor Volume (TV)(mm^3)=(Major axis,mm)×(Minor axis,mm)×(Minor axis,mm)/2
Relative tumor volume change percentage (T/C)(%)=(Mean TV of the administration group)/(Mean TV of a control group)×100
For the measurement of the body weight, an animal electronic balance was used. A body weight change percentage on the n^th day (BWCn) from the body weight on 0th day (BW0) and the body weight on the n^th day (BWn) was calculated according to the following equation:
Body weight change percentage BWCn (%)=(BWn−BW0)/BW0×100
Nude mice having TV of 50 to 300 mm^3 were selected and assigned to groups each involving 6 animals by the equal number method [MiSTAT (ver. 2.1)] such that the means of TV were equal among the groups. […] An untreated group was used as a control.
The presence or absence of a combinatorial effect and toxicity was judged from the tumor sizes and the body weights on the grouping day (Day 0) and the judgement day (Day 15). During the administration period, the body weight was measured every day for calculation of the amount of the dosing solution.

EGFR [D770_N771insNPG] = target: T1, EGFR [D770_N771insNPG] (Homo sapiens, UniProt P00533, INS770NPG); assay: Phosphorylation activity inhibitory effect (in vitro) on mutant EGFR D770_N771insNPG; type: biochemical
T1 construct: purchased Carna Biosciences, Inc
Protocol: (§1) Test Example 6 Measurement of Phosphorylation Activity Inhibitory Effect (In Vitro) on Wild-Type and Mutant EGFR
(§2) The measurement of the in vitro inhibitory activity of a compound against wild-type and mutant EGFR was outsourced to Carna Biosciences, Inc. (Kinase Profiling Book, https://www.carnabio.com/japanese/product/search.cgi?mode=profiling).
(§3) Specifically, first, the pyrimidine compound of the present invention was diluted stepwise with dimethyl sulfoxide (DMSO). […] To the reaction solution, Termination Buffer was added, so as to terminate the kinase reaction. Finally, using LabChip™ EZ Reader II (PerkinElmer), an unphosphorylated substrate peptide (S) and a phosphorylated peptide (P) were separated and detected according to microchannel capillary electrophoresis.
(§4) As the pyrimidine compound of the present invention, the compound of Example 11 (Example compound 11) was used.

EGFR = target: T2, EGFR (Homo sapiens, UniProt P00533); assay: Phosphorylation activity inhibitory effect (in vitro) on wild-type EGFR; type: biochemical
T2 construct: purchased Carna Biosciences, Inc
Protocol: as §1, §2, §3, §4

[2] = tested on: human stomach cancer cell line NCI-N87; assay: Combination (in vivo) of pyrimidine compound and capecitabine, NCI-N87 subcutaneous model
Protocol: Test Example 18 Combination (In Vivo) of Pyrimidine Compound and Capecitabine
A human stomach cancer cell line NCI-N87 was obtained from American Type Culture Collection (ATCC). The cell line was cultured in RPMI-1640 (containing 4.5 g/L glucose, 10 mM HEPES and 1 mM sodium pyruvate) (FUJIFILM Wako Pure Chemical Corporation) medium containing 10% fetal bovine serum (FBS) in a 5% CO2 incubator at 37° C.
The NCI-N87 cells were resuspended at a concentration of 8×10^7 cells/mL in PBS.
An aqueous solution containing 0.1 N HCl and 0.5% HPMC was used as a control.

EGFR [d746-750] = target: T3, EGFR [d746-750] (Homo sapiens, UniProt P00533, DEL746-750); assay: Phosphorylation activity inhibitory effect (in vitro) on mutant EGFR d746-750; type: biochemical
T3 construct: purchased Carna Biosciences, Inc
Protocol: as §1, §2, §3, §4

EGFR [d746-750/T790M] = target: T4, EGFR [d746-750/T790M] (Homo sapiens, UniProt P00533, DEL746-750/T790M); assay: Phosphorylation activity inhibitory effect (in vitro) on mutant EGFR d746-750/T790M; type: biochemical
T4 construct: purchased Carna Biosciences, Inc
Protocol: as §1, §2, §3, §4

EGFR [T790M/L858R] = target: T5, EGFR [T790M/L858R] (Homo sapiens, UniProt P00533, L858R/T790M); assay: Phosphorylation activity inhibitory effect (in vitro) on mutant EGFR T790M/L858R; type: biochemical
T5 construct: purchased Carna Biosciences, Inc
Protocol: as §1, §2, §3, §4

SK-BR-3 cells = assay: Growth inhibitory activity against HER2 expressing cell line SK-BR-3; type: cell-based; conditions: Homo sapiens, SK-BR-3, 72 h; 3 days, CellTiter-Glo 2.0
Protocol: Test Example 3 Measurement of Growth Inhibitory Activity Against HER2 Expressing Cell Line
SK-BR-3 cells as a HER2 overexpressing human breast cancer cell line were suspended in a McCoy's 5a medium (manufactured by Life Technologies) supplemented with 10% fetal bovine serum. The cell suspension was seeded in each well of a 384-well flat-bottom microplate, and was then cultured in a 5% carbon dioxide gas-containing culture vessel at 37° C. for 1 day. Thereafter, the compound of the present invention was dissolved in DMSO, and the pyrimidine compound was diluted to 500 times the final concentration in DMSO. The compound in the DMSO solution was diluted with DMSO solution or the medium used in the suspension of the cells, and the obtained solution was then added to each well of the culture plate so that the final concentration of DMSO was 0.2%. The obtained mixture was further cultured in the 5% carbon dioxide gas-containing culture vessel at 37° C. for 3 days. After completion of the culture for 3 days in the presence of the compound, the cells were counted using CellTiter-Glo 2.0 (manufactured by Promega), and the growth inhibition percentage was then calculated according to the following equation.
Growth inhibitory percentage (%)=(C−T)/(C)×100 […]

[3] = day 15, Example 11 6.25 mg/kg/day, day 1-14, p.o.

T5 sequence (P00533 25-1210 T790M/L858R): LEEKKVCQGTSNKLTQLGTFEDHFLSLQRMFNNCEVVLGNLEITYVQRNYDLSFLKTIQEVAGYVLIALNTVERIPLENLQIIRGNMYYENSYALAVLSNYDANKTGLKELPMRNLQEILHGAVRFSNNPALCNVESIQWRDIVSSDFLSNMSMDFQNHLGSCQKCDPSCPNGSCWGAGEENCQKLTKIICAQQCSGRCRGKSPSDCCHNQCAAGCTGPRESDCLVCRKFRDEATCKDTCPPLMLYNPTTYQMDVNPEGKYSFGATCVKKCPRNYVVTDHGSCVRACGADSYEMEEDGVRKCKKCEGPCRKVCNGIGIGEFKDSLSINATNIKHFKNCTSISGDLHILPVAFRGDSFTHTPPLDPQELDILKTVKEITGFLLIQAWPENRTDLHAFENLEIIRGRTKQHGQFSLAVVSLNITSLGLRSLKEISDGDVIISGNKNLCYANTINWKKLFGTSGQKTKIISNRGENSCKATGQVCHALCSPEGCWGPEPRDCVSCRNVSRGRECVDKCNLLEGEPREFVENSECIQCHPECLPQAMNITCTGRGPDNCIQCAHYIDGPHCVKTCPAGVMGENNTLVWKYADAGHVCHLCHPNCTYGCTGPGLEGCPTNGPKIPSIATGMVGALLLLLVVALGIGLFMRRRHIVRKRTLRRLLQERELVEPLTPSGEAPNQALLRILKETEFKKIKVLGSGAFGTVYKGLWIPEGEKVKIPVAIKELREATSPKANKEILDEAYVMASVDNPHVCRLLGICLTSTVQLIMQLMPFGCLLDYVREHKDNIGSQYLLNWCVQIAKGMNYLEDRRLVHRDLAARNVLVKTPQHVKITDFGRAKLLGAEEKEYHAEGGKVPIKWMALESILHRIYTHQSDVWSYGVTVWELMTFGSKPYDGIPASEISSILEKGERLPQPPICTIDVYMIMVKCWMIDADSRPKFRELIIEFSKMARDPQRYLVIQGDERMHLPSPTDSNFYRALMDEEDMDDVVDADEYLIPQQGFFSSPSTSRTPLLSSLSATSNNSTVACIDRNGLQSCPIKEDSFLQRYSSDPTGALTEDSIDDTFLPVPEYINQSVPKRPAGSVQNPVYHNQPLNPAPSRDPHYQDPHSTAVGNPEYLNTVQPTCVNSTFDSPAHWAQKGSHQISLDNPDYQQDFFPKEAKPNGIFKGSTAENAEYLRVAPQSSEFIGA
T3 sequence (P00533 with tags, fused parts or gaps DEL746-750): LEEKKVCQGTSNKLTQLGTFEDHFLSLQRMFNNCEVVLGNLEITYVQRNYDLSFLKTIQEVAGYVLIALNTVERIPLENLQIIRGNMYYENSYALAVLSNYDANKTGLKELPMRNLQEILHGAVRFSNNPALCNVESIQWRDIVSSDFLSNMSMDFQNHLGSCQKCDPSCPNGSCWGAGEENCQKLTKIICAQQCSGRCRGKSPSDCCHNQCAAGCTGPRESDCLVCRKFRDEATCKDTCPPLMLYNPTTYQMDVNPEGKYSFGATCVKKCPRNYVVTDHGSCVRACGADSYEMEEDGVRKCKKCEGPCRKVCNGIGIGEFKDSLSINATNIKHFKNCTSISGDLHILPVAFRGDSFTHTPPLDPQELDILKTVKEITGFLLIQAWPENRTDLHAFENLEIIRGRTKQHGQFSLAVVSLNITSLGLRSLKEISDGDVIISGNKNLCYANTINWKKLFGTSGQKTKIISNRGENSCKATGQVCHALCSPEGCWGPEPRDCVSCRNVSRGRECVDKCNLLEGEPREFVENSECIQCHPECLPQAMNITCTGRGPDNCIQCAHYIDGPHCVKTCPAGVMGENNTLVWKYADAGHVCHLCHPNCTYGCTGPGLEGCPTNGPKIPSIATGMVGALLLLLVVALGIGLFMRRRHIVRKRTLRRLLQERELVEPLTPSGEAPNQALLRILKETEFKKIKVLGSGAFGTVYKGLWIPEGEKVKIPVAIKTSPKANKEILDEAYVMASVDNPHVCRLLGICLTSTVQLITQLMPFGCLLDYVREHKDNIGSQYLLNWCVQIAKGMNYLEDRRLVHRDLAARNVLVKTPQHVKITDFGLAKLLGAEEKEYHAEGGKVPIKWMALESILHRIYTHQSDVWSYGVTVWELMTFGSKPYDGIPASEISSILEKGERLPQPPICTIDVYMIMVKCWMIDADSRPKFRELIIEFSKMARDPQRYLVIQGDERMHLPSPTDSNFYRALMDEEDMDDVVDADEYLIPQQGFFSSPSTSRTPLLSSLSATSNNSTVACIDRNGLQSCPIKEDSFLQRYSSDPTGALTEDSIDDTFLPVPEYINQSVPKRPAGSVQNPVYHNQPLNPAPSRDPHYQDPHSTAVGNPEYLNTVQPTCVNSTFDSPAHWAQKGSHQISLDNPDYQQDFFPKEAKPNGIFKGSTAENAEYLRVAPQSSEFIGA
T4 sequence (P00533 with tags, fused parts or gaps DEL746-750/T790M): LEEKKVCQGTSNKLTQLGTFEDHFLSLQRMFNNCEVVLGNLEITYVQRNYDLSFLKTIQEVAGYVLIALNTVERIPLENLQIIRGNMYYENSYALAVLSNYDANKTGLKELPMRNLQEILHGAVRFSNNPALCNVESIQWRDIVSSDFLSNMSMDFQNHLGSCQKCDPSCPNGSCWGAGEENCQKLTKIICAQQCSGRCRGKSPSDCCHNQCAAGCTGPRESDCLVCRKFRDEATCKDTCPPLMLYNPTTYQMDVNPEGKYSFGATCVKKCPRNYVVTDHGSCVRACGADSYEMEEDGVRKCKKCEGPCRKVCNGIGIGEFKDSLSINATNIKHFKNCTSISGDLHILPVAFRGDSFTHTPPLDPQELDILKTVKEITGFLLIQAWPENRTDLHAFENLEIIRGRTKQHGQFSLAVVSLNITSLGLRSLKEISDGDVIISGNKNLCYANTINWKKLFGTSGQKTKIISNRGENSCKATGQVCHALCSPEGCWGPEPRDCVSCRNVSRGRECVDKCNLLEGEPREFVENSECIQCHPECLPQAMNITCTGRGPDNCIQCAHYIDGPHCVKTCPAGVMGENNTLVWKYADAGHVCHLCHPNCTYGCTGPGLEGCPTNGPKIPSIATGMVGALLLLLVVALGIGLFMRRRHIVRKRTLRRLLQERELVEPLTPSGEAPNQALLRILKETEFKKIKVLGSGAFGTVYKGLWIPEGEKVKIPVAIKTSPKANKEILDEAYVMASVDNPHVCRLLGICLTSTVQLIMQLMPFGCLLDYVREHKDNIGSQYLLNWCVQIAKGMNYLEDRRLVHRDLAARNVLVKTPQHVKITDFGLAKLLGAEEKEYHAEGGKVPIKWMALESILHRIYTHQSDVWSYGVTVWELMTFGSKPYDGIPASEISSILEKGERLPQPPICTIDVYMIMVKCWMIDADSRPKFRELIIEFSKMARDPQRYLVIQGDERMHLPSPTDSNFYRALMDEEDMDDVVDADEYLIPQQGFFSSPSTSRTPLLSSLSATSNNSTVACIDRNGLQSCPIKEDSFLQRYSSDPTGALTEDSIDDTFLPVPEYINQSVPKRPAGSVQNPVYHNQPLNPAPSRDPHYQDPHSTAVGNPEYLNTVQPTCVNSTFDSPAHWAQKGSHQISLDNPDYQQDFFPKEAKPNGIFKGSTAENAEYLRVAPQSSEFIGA
T2 sequence (P00533 25-1210): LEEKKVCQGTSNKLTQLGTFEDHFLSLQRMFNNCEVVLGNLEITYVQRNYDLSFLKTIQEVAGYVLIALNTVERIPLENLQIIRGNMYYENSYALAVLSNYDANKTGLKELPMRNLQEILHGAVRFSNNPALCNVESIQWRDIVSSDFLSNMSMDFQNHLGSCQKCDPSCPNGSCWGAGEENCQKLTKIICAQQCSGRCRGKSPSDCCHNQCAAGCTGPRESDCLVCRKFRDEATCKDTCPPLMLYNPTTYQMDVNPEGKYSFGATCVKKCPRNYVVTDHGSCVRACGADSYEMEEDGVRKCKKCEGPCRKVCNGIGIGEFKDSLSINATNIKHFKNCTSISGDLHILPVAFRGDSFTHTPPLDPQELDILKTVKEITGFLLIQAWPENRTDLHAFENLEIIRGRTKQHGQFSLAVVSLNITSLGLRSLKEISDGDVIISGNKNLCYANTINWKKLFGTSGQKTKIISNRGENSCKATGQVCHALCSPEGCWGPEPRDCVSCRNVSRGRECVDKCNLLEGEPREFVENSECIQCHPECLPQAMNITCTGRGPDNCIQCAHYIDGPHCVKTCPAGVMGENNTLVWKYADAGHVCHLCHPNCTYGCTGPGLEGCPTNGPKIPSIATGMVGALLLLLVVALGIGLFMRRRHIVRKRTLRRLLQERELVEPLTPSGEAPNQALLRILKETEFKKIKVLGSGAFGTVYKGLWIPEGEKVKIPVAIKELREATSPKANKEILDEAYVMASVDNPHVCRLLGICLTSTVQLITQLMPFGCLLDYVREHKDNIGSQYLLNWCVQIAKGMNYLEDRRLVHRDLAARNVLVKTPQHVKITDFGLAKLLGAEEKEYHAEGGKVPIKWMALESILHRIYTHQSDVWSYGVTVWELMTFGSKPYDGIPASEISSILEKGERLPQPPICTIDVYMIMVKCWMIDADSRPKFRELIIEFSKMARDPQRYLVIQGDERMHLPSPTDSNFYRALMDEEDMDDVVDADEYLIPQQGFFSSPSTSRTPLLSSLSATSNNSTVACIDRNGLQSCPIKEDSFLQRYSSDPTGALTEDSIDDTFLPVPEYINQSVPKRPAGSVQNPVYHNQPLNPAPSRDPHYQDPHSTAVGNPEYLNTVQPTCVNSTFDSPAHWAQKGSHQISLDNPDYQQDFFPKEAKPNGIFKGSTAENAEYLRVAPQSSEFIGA

C=CC(=O)N1C[C@H](n2c(C#CC)c(C(=O)N[C@H](C)c3ccccc3)c3c(N)ncnc32)C[C@@H]1C [Example 2, 7-((3R,5S)-1-acryloyl-5-methylpyrrolidin-3-yl)-4-amino-N—((R)-1-phenylethyl)-6-(prop-1-yn-1-yl)-7H-pyrrolo[2,3-d]pyrimidine-5-carboxamide]
body weight reduction of −20% or more (NCI-N87-Luc): not observed

C=CC(=O)N1C[C@H](n2c(C#CC3CC3)c(C(=O)N[C@H](C)c3ccccc3)c3c(N)ncnc32)C[C@@H]1C [Example 11, 7-((3R,5S)-1-acryloyl-5-methylpyrrolidin-3-yl)-4-amino-6-(cyclopropylethynyl)-N—((R)-1-phenylethyl)-7H-pyrrolo[2,3-d]pyrimidine-5-carboxamide]
BWC (%, Mean ± SE) ([1]; Example 11 6.25 mg/kg/day): 3.69 ± 0.75%
T/C (%) ([1]; Example 11 6.25 mg/kg/day): 22.0%
TV (mm^3, mean ± SE) ([1]; Example 11 6.25 mg/kg/day): 448.7 ± 79.0 mm^3
BWC (%, Mean ± SE) ([1]; Example 11 12.5 mg/kg/day): 3.79 ± 1.07%
T/C (%) ([1]; Example 11 12.5 mg/kg/day): 3.0%
TV (mm^3, mean ± SE) ([1]; Example 11 12.5 mg/kg/day): 62.0 ± 6.9 mm^3
Number of Deaths ([1]; Example 11 6.25 mg/kg/day): 0
Number of Deaths ([1]; Example 11 12.5 mg/kg/day): 0
TV on Day 15 versus control group (Dunnett's test) ([1]; trastuzumab iv Days 1 and 8 (except for the 20 mg/kg/day group), Example 11 po Days 1-14): significantly lower TV
body weight reduction of −20% or more (NCI-N87-Luc): not observed
IC50 (EGFR [D770_N771insNPG]): 0.55 nM
IC50 (EGFR): 0.47 nM
Number of Death ([2]; Example 11 6.25 mg/kg/day, day 1-14, p.o.): 0
TV on Day 15 versus control group (Dunnett's test) ([2]; capecitabine and Example 11 po once a day, Days 1-14): significantly lower TV
T/C (%) [2, 3]: 47%
Tumor volume (mm^3) day 15 Mean ± S.E. [2, 3]: 272.43 ± 22.22 mm^3
BWC (%) Mean ± S.E. ([2]; mouse, in vivo, po, 6.25 mg/kg/day): 6.3 ± 0.9%
IC50 (EGFR [d746-750]): 0.25 nM
IC50 (EGFR [d746-750/T790M]): 6.8 nM
IC50 (EGFR [T790M/L858R]): 6.6 nM
IC50 (SK-BR-3 cells): 6.6 nM
